Patent US10266482B2, “Long-term memory inducing agent” (NATIONAL UNIVERSITY CORPORATION TOKYO MEDICAL AND DENTAL …, priority 2017, dated 2019)
One block for each compound: values may come before it.

Columns and labels:
young crickets [1] = assay: AMK-related synthetic compounds inducing long-term memories in young crickets; assay type: in vivo, Gryllus bimaculatus; settings: 3 μl of 1 μg/ml to the brain 20 minutes after single-time training
Procedure: Male (young) crickets about one week old following molting into their adult stage were used. Each of the crickets was placed in a 100 ml beaker three days before the experiment, and deprived of water for 2-3 days to enhance the desire of taking water. As the feed, about 10 pieces of insect feed were placed into the beaker.
In the same manner as “1.2, Olfactory associative conditioning” in Example 1, learning/training for smell and reward associative conditioning was conducted.
In the same manner as “1.3. Smell preference test” in Example 1, a test of smell preference was carried out.
As drugs, the AMK-related synthetic compounds (Compounds 1-10) synthesized in Example 2 above were used. For all of the drugs, 1 mg of the drug was initially dissolved in 100 μl of DMSO, and then diluted with physiological saline for crickets that was 10000 times the amount of the drug solution (final concentration: 1 μg/ml). In the administration experiments, 3 μl was administered to the brain via an aperture opened through a simple eye of the head using a 10-μl syringe.
Processing was conducted in the same manner as “1.5. Statistical processing” in Example 1.

young crickets [2] = assay: Olfactory associative learning test in young crickets (single-time training, memory a day after); assay type: in vivo, Gryllus bimaculatus; settings: for long-term memory formation a day after the training: 3 μl to the brain
Procedure: Male crickets about one week old (young) or three week old (aged) following molting into adult forms were used. Each of the crickets was placed into a 100 ml beaker three days before the experiment, and deprived of water for 2-3 days to enhance the desire of taking water. As the feed, about 10 pieces of insect feed were placed into the beaker.
A 1-ml syringe was used for smell and reward associative conditioning upon learning/training. The syringe contained water as the reward while a piece of paper (3 mm×3 mm) perfumed with peppermint essence was pierced into the needle to about 1 cm from the tip thereof. In this learning/training, the filter paper on the needle was brought near the antennae of the cricket to allow it to smell for 3 seconds and then a drop of water was put out from the tip of the needle and applied to the mouth of the cricket. When the associative conditioning was conducted for four times, the conditionings were conducted at intervals of 5 minutes.
Smell preference was examined by placing each cricket into a test arena. The arena consisted of a “standby chamber” and a “test chamber”. The floor of the “test chamber” had two holes each with a diameter of 4 cm which were communicated with two smell sources. The smell source was a plastic pot containing filter paper perfumed with essence of a smell (peppermint or vanilla) and covered with a gauze lid. In the preference test, each cricket was placed into the test chamber and allowed to walk freely for 4 minutes to search for the two smell sources. Two minutes after the start of the test, a rotary board having the smell sources was rotated to reverse the positions of the vanilla and the peppermint smells. During the test, the time the cricket spent placing its mouth to the gauze of the smell source was measured as a visiting time to the smell source, and the ratio of the visiting times of the two types of smells (PI value: preference index) was calculated according to the following formula to assess the relative preference to the mint smell. PI value=Tp/(Tp+Tv)×100 • Tp: Searching time for smell associated with the reward (peppermint) • Tv: Searching time for smell not associated with the reward (vanilla)
If the preferences for the two smells are equivalent, PI will be 50. Since crickets inherently prefer vanilla smell over peppermint smell, an average PI value prior to the learning/training is usually 25-35, The preference test was conducted before and after the learning/training to examine whether preference for the smell changes due to the learning/training.
As drugs, melatonin, N(1)-acetyl-N(2)-formyl-5-methoxykynuramine (AFMK), N(1)-acetyl-5-methoxykynuramine (AMK), 6-Hydroxymelatonin (6-HM), L-kynurenine, kynuramine, 8-Bromoguanoine 3′,5′-cyclic monophosphate sodium salt (8 br-cGMP) and cycloheximide (CHX) were used. Melatonin, 6-HM, kynurenine, kynuramine and 8br-cGMP were purchased from SIGMA Aldrich, AFMK was purchased from Cayman Chemical, AMK was purchased from Toronto Research Chemicals and CHX was purchased from Wako Pure Chemical Industries. The drugs other than 8br-cGMP and CHX were first dissolved in ethanol and then diluted with physiological saline for crickets to the respective concentrations. In the administration experiment, 3 μl was administered using a 10-μl syringe to the brain via an aperture opened through a simple eye of the head.
PI values were tested before the training and a day after the training in the same group by a Wilcoxon's-test.

young mice = assay: Object recognition test for young mice (melatonin and melatonin metabolites); assay type: in vivo, ICR mice; settings: i.p. 60 minutes after one one-minute acquisition trial, test trial 24 hours later
Procedure: Two-month-old male ICR mice (young mice) were used. The rearing room was kept at 22° C. at cycles of 12 hours of light period/12 hours of dark period, and feed and drinking water were given freely. All of the experiments were conducted during the latter 6 hours of the light period.
Melatonin (MEL), N(1)-acetyl-N(2)-formyl-5-methoxykynuramine (AFMK), and N(1)-acetyl-5-methoxykynuramine (AMK) were used as drugs. Melatonin was purchased from SIGMA Aldrich, AFMK was purchased from Cayman Chemical, and AMK was purchased from Toronto Research Chemicals. AFMK and AMK were diluted with physiological saline and intraperitoneally administered at a dosage of 0.01 mg/kg bw, 0.1 mg/kg bw or 1.0 mg/kg bw. MEL was diluted with physiological saline containing 1 vol % ethanol, and intraperitoneally administered at a dosage of 1.0 mg/kg bw or 5.0 mg/kg bw. As controls, physiological saline or physiological saline containing 1 vol % ethanol was intraperitoneally administered.
Test was conducted in the same manner as “5.3 Object recognition test” in Example 5.
Processing was conducted in the same manner as “5.4 Statistical processing” in Example 5.

aged crickets = assay: Olfactory associative learning test in aged crickets (age-related memory disorder, training four times); assay type: in vivo, Gryllus bimaculatus; settings: 500 μM, 3 μl, 20 minutes before training for four times
Procedure: Male crickets about one week old (young) or three week old (aged) following molting into adult forms were used. Each of the crickets was placed into a 100 ml beaker three days before the experiment, and deprived of water for 2-3 days to enhance the desire of taking water. As the feed, about 10 pieces of insect feed were placed into the beaker. A 1-ml syringe was used for smell and reward associative conditioning upon learning/training. The syringe contained water as the reward while a piece of paper (3 mm×3 mm) perfumed with peppermint essence was pierced into the needle to about 1 cm from the tip thereof. In this learning/training, the filter paper on the needle was brought near the antennae of the cricket to allow it to smell for 3 seconds and then a drop of water was put out from the tip of the needle and applied to the mouth of the cricket. When the associative conditioning was conducted for four times, the conditionings were conducted at intervals of 5 minutes. Smell preference was examined by placing each cricket into a test arena. The arena consisted of a “standby chamber” and a “test chamber”. […] The smell source was a plastic pot containing filter paper perfumed with essence of a smell (peppermint or vanilla) and covered with a gauze lid. In the preference test, each cricket was placed into the test chamber and allowed to walk freely for 4 minutes to search for the two smell sources. Two minutes after the start of the test, a rotary board having the smell sources was rotated to reverse the positions of the vanilla and the peppermint smells. During the test, the time the cricket spent placing its mouth to the gauze of the smell source was measured as a visiting time to the smell source, and the ratio of the visiting times of the two types of smells (PI value: preference index) was calculated according to the following formula to assess the relative preference to the mint smell. PI value=Tp/(Tp+Tv)×100 • Tp: Searching time for smell associated with the reward (peppermint) • Tv: Searching time for smell not associated with the reward (vanilla) If the preferences for the two smells are equivalent, PI will be 50. Since crickets inherently prefer vanilla smell over peppermint smell, an average PI value prior to the learning/training is usually 25-35, The preference test was conducted before and after the learning/training to examine whether preference for the smell changes due to the learning/training. […] Melatonin, 6-HM, kynurenine, kynuramine and 8br-cGMP were purchased from SIGMA Aldrich, AFMK was purchased from Cayman Chemical, AMK was purchased from Toronto Research Chemicals and CHX was purchased from Wako Pure Chemical Industries. The drugs other than 8br-cGMP and CHX were first dissolved in ethanol and then diluted with physiological saline for crickets to the respective concentrations. In the administration experiment, 3 μl was administered using a 10-μl syringe to the brain via an aperture opened through a simple eye of the head. PI values were tested before the training and a day after the training in the same group by a Wilcoxon's-test.

[3] = 5 μM, 20 minutes after single-time training

Structure (SMILES): CCC(=O)NCCC(=O)c1cc(OC)ccc1N [Compound 2, N-[3-(2-amino-5-methoxyphenyl)-3-oxopropyl]-propionamide]
effect in inducing long-term memory compared with AMK (young crickets [1]): superior effects over AMK

Structure (SMILES): COc1ccc(N)c(C(=O)CCNC(=O)c2ccccc2)c1 [Compound 3, N-[3-(2-amino-5-methoxyphenyl)-3-oxopropyl]-benzamide]
effect in inducing long-term memory compared with AMK (young crickets [1]): superior effects over AMK

melting point: 134.5 to 136 °C
Structure (SMILES): COc1ccc(N)c(C(=O)CCNC(=O)c2ccccc2OC)c1 [Compound 5, N-[3-(2-amino-5-methoxyphenyl)-3-oxopropyl]-2-methoxybenzamide]

melting point: 113.5 to 114.5 °C
Structure (SMILES): COc1ccc(N)c(C(=O)CCNC(=O)c2ccc3ccccc3c2)c1 [Compound 6, N-[3-(2-amino-5-methoxyphenyl)-3-oxopropyl]-2-naphthamide]
effect in inducing long-term memory after one day (young crickets [1]): did not show significant difference with the number of individuals used this time but they showed a tendency to induce long-term memories

Structure (SMILES): COc1cc2c(CCNC(C)=O)c[nH]c2cc1O [Compound 6-HM, 6-Hydroxymelatonin, reference compound]
long-term memory formation a day after the training (young crickets [2]; [3]): a long-term memory was not formed | long-term memory formation a day after the training (young crickets [2]; 5 μM, 20 minutes before single-time training): a long-term memory was not formed

melting point: 114 to 115.5 °C
Structure (SMILES): COc1ccc(N)c(C(=O)CCNC(=O)c2ccccn2)c1 [Compound 7, N-[3-(2-amino-5-methoxyphenyl)-3-oxopropyl]-2-picolinamide]
effect in inducing long-term memory compared with AMK (young crickets [1]): superior effects over AMK

melting point: 121 to 122 °C
Structure (SMILES): CC(=O)NCCC(=O)c1cc(Cl)ccc1N [Compound 8, N-[3-(2-amino-5-chlorophenyl)-3-oxopropyl]-acetamide]
effect in inducing long-term memory after one day (young crickets [1]): did not show significant difference with the number of individuals used this time but they showed a tendency to induce long-term memories

Structure (SMILES): Nc1nc2c(nc(Br)n2[C@@H]2O[C@@H]3COP(=O)([O-])O[C@H]3[C@H]2O)c(=O)[nH]1.[Na+] [Compound 8br-cGMP, 8-Bromoguanoine 3′,5′-cyclic monophosphate sodium salt, reference compound]
long-term memory formation a day after the training (young crickets [2]; 200 μM, 20 minutes after single-time training): did not have the effect of inducing long-term memory | long-term memory formation a day after the training (young crickets [2]; 200 μM, 20 minutes before single-time training): confirmed

Structure (SMILES): CC(=O)NCCC(=O)c1ccccc1N [Compound 9, N-[3-(2-aminophenyl)-3-oxopropyl]acetamide]
effect in inducing long-term memory compared with AMK (young crickets [1]): superior effects over AMK

Structure (SMILES): COc1ccc(NC=O)c(C(=O)CCNC(C)=O)c1 [Compound 10, N-[3-(2-formylamino-5-methoxyphenyl)-3-oxopropyl]acetamide]
concentration at which the effect of inducing long-term memories was found (young mice): 1.0 mg/kg bw | administration concentration sufficient to form long-term memory (young crickets [2]; 3 μl to the brain 20 minutes after single-time training): 1 µM

melting point: 143 to 145 °C
Structure (SMILES): COc1ccc(NC(C)=O)c(C(=O)CCNC(C)=O)c1 [Compound 13, N-[3-(2-acetylamino-5-methoxyphenyl)-3-oxopropyl]acetamide]

Structure (SMILES): NCCC(=O)c1ccccc1N [Compound 15, 3-amino-1-(2-aminophenyl)-1-propanone]
long-term memory formation a day after the training (young crickets [2]; [3]): the long-term memories were formed

Structure (SMILES): Nc1ccccc1C(=O)CC(N)C(=O)O (stereo not drawn) [Compound 16, 3-[(2-aminophenyl)carbonyl]-2-aminopropionic acid]
long-term memory formation a day after the training (young crickets [2]; [3]): the long-term memories were formed

Structure (SMILES): N[C@@H](CCC(=O)N[C@@H](CS)C(=O)NCC(=O)O)C(=O)O [glutathione]
improvement in an age-related memory disorder (aged crickets): no improvement

Structure (SMILES): O=C1O[C@H]([C@@H](O)CO)C(O)=C1O [vitamin C]
improvement in an age-related memory disorder (aged crickets): no improvement
